For 9 molecules, IC50 results are on record in patent US20090181972A1, “Novel Inhibitors of Cysteine Proteases, the Pharmaceutical Compositions Thereof and their Therapeutic Applications” (priority 2005, published 2009).

In the assay the target is T1, USP7 (Homo sapiens, UniProt Q93009).
T1 construct: His tag (pFastBac-HT vector) (N); made in house; host or cells: Sf9 or High Five insect cells (baculovirus)
T1 sequence (Q93009 whole entry): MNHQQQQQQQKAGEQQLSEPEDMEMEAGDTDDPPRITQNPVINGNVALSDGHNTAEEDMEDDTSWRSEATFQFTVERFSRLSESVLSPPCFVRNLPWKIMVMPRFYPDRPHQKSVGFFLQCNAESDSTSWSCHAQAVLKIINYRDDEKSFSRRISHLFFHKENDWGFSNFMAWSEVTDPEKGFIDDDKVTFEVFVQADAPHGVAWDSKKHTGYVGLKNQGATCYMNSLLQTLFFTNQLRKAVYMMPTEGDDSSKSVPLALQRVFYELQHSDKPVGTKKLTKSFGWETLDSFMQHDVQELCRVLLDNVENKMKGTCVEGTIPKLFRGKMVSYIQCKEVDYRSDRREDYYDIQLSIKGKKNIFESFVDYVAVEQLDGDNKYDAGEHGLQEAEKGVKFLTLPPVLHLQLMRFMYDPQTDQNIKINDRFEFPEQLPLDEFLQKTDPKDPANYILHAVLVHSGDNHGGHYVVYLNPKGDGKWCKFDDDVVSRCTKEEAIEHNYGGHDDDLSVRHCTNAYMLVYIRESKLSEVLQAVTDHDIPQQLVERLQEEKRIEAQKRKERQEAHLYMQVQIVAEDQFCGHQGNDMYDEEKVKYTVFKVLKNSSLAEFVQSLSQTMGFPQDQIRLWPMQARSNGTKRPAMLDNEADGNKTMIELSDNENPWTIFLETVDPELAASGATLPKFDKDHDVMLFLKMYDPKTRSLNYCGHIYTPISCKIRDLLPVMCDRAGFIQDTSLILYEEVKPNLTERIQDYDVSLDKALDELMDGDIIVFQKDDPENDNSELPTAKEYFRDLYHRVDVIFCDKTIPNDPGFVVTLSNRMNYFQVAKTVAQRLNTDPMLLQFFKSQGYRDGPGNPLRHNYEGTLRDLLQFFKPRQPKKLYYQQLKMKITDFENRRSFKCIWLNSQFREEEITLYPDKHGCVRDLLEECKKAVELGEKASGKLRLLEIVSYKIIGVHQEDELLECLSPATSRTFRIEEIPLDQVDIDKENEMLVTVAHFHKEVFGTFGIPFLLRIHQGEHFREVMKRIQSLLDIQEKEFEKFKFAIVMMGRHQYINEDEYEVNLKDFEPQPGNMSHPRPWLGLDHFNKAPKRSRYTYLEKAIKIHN
In words: USP7 activity assay. Particulars: 400 nM Ub-AMC, 152 pM enzyme; pre-incubated 30 minutes at 25° C., 60 minutes at 37° C.; sigmoidal fit; read-out: USP 7. The format is biochemical. The source says: The cDNA encoding USP7 was obtained by PCR amplification from placenta mRNA. USP7 cDNA was subcloned by PCR into a baculovirus expression vector (pFastBac-HT; Invitrogen). A cDNA encoding a mutated USP7 was generated by mutagenic PCR. The corresponding protein encodes a cysteine to alanine substitution at residue 223. The sequences were ascertained by sequencing of the entire open reading frame. Bacmids encoding USP7 were generated following DH10bac transposition. The corresponding bacmids were transfected into insect cells (Sf9). Viruses were recovered from culture supernatant and amplified twice. Insect cells (Sf9 or High Five; lnvitrogen) were infected for 72 hours. Total cell lysates were harvested and lyzed in lysis buffer (Tris HCl 50 mM pH 7.6; 0.75 % NP40; 500 mM NaCl; 10% glycerol; 1 mM DTT; 10 mM imidazole; Protease Inhibitor Cocktail; AEBSF 20 μg.ml^−1; Aprotinin 10 μg.ml^−1). Proteins were affinity purified on metal affinity resins (Talon Metal affinity resin; BD Biosciences). Bound materials were extensively washed in wash buffer (50 mM Sodium Phosphate pH 7.0; 300 mM NaCl; 10 mM imidazole; 0.5% Triton X-100; 10% glycerol) and eluted from the resin in 250 mM imidazole-containing wash buffer. Proteins were dialyzed in dialysis buffer (Tris HCl pH 7.6 20 mM; NaCl 200 mM; DTT 1 mM; EDTA 1 mM; 10% Glycerol). Proteins purifications were analyzed on 4-12% NuPAGE (Invitrogen).
USP7 was diluted in USP buffer (50 mM Tris HCl; 0.5 mM EDTA; 5 mM DTT; 0.01 % Triton X-100; Bovine Serum Albumin 0.05 mg.ml^−1 pH 7.6). Compounds stocks (100 mM) were stored at −20° C. in DMSO. Compounds were tested at the following final concentrations: 100 μM; 33.3 μM; 11.1 μM; 3.7 μM; 1.23 μM; 412 nM; 137 nM; 45.7 nM; 15.2 nM; 5 nM.
Reactions were performed as duplicates in Black LJL 96 well plates (HE microplates; Molecular Devices; 20 μl final reaction volume). The substrate concentration for USP7 was 400 nM Ub-AMC (Chem. Biol., 2003, 10, p. 837-846) (Boston Biochem). The concentrations of the enzyme (USP7) in specificity assays was 152 pM. The concentrations were determined in order to perform specificity assays under initial velocities at fixed substrate concentration. Compounds were pre-incubated with enzymes for 30 minutes at 25° C. Reactions were initiated by addition of substrate to the plates containing the enzymes (+/− compounds) diluted in assay buffer. Reactions were incubated for 60 minutes at 37° C. Reactions were stopped by adding acetic acid (100 mM final). Readings were performed on a Pherastar Fluorescent Reader (BMG). λ Emission 380 nm; λ Excitation=460 nm. Data (mean values +/− standard deviation) were analyzed as % of control (no compound) and plotted as percentage versus the Log of the compound concentration using GraphPad (Prism). Data were fitted to a sigmoidal model (variable slope).
`CCc1nnc2nc3c(nn12)C(=O)c1cc(OC)c(OC)cc1-3` [Example 5b/A, 1-Ethyl-6,7-dimethoxy-2,3,4,10,10a-pentaaza-cyclopenta[b]fluoren-9-one]: the IC50 was 13.3 µM.
As to `CCc1nnc2nc3c(nn12)-c1c(OC)ccc(OC)c1C3=O` [Example 6/B, 3-Ethyl-5,8-dimethoxy-1,2,3a,4,10-pentaaza-cyclopenta[b]fluoren-9-one], the IC50 turned out to be 3.08 µM.
The figure for `CCCc1nnc2nc3c(nn12)-c1cc(OC)c(OC)cc1C3=O` [Example 5c/B, 6,7-Dimethoxy-3-propyl-1,2,3a,4,10-pentaaza-cyclopenta[b]fluoren-9-one] is 0.936 µM.
The same measure for `COCCOCCOCc1nnc2nc3c(nn12)C(=O)c1ccccc1-3` [Example 1n/A, 1-[2-(2-Methoxy-ethoxy)-ethoxymethyl]-2,3,4,10,10a-pentaaza-cyclopenta[b]fluoren-9-one]: 1.2 µM; for `O=C1c2ccccc2-c2nn3c(C(F)(F)F)nnc3nc21` [Example 1m/B, 3-Trifluoromethyl-1,2,3a,4,10-pentaaza-cyclopenta[b]fluoren-9-one]: 0.226 µM; for `COc1cc2c(cc1OC)-c1nn3c(C)nnc3nc1C2=O` [Example 5a/B, 6,7-Dimethoxy-3-methyl-1,2,3a,4,10-pentaaza-cyclopenta[b]fluoren-9-one]: 0.525 µM.
As to `CCc1nnc2nc3c(nn12)-c1cc(OC)c(OC)cc1C3=O` [Example 5b/B, 3-Ethyl-6,7-dimethoxy-1,2,3a,4,10-pentaaza-cyclopenta[b]fluoren-9-one], the IC50 came out at 1.05 µM.
With “6-(7)-Chloro-1-methyl-2,3,4,10,10a-pentaaza-cyclopenta[b]fluoren-9-one [Example 3/A]”, the IC50 was 2.8 µM.
With `CC(C)c1nnc2nc3c(nn12)-c1ccccc1C3=O` [Example 1l/B, 3-Isopropyl-1,2,3a,4,10-pentaaza-cyclopenta[b]fluoren-9-one], the IC50 was 0.82 µM.
